The source of these data is ChEMBL document CHEMBL4715920, “Novel Spiropiperidine Allosteric Modulators of Nicotinic Acetylcholine Receptors for Treating Central Nervous System Disorders” (ACS Med Chem Lett, 2021).

Neuronal acetylcholine receptor subunit alpha-7, sequence (P36544 whole entry): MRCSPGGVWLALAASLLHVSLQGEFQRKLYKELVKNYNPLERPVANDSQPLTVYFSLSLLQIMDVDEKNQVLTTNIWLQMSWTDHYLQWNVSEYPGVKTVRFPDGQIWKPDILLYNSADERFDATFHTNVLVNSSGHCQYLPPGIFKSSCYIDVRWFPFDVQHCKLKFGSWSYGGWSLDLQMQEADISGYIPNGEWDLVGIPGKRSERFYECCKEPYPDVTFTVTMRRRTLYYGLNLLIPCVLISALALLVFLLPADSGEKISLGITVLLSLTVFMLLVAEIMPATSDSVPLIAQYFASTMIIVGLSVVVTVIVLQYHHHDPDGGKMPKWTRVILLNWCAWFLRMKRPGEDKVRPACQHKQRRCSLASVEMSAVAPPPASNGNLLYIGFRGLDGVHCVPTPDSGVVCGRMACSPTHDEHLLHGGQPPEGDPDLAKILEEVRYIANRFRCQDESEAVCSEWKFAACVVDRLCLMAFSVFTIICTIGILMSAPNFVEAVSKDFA

This assay concerns the target Neuronal acetylcholine receptor subunit alpha-7 (Homo sapiens, UniProt P36544). The assay is described as follows: Positive allosteric modulation of recombinant human AChR alpha7 expressed in HEK cells co-expressing RIC-3 at -60 mV holding potential treated for 58 sec followed by acetylcholine applied for 1 sec measured potentiation effect by automated patch clamp electrophysiological method. The class given is cell-based.
As to `NS(=O)(=O)N1CCC2(CC1)C[C@H]2COc1cccc(NCC(F)(F)F)n1`, the half-maximal effective concentration (EC50) was at most 0.1 µM.
The same measure for `NS(=O)(=O)N1CCC2(CC1)C(COc1ccnc(OC(F)F)c1)C2(F)F` (stereo unspecified): at most 0.1 µM.
Regarding `COc1ccc(Cl)cc1NC[C@@H]1CC12CCN(S(N)(=O)=O)CC2`, the EC50 was at most 0.1 µM.
The same measure for `COc1ccc(Cl)cc1NC(=O)[C@@H]1C(F)(F)C12CCN(S(N)(=O)=O)CC2`: at most 0.1 µM.
`NS(=O)(=O)N1CCC2(CC1)C(COc1noc(-c3ccccc3)n1)C2(F)F` (stereo unspecified): the EC50 is at most 0.1 µM.
Regarding `COc1ccc(Cl)cc1SC[C@@H]1CC12CCN(S(N)(=O)=O)CC2`, the EC50 was at most 0.1 µM.
